# Where a name gives a salt, the structure may show the parent alone. Read-outs that look alike come from different tables or passages of the source.
# Molecular target: T1, wild-type human CFTR (Homo sapiens, UniProt P13569)
# T1 construct: expressed in transfected cells; host or cells: NIH 3T3 fibroblasts (stably infected with a retrovirus)
# Assay: Whole-cell patch-clamp recording of cAMP-activated CFTR Cl- currents in NIH 3T3 fibroblasts expressing recombinant CFTR
# Type: cell-based
# Conditions: for effect on baseline currents: before cAMP stimulation, n=3; for inhibition at 1000 µM: 1 mM; for effect on Cl- current previously activated by cAMP agonists: added to the bathing solution after activation; for relative potency of inhibition of CFTR Cl- currents: rank order among K+ channel openers
# [1] = NIH3T3, 250 μM, 3 min after adding, currents activated by cAMP agonists
# [2] = NIH3T3, 3 min after adding, currents activated by cAMP agonists
# T1 sequence (P13569 whole entry): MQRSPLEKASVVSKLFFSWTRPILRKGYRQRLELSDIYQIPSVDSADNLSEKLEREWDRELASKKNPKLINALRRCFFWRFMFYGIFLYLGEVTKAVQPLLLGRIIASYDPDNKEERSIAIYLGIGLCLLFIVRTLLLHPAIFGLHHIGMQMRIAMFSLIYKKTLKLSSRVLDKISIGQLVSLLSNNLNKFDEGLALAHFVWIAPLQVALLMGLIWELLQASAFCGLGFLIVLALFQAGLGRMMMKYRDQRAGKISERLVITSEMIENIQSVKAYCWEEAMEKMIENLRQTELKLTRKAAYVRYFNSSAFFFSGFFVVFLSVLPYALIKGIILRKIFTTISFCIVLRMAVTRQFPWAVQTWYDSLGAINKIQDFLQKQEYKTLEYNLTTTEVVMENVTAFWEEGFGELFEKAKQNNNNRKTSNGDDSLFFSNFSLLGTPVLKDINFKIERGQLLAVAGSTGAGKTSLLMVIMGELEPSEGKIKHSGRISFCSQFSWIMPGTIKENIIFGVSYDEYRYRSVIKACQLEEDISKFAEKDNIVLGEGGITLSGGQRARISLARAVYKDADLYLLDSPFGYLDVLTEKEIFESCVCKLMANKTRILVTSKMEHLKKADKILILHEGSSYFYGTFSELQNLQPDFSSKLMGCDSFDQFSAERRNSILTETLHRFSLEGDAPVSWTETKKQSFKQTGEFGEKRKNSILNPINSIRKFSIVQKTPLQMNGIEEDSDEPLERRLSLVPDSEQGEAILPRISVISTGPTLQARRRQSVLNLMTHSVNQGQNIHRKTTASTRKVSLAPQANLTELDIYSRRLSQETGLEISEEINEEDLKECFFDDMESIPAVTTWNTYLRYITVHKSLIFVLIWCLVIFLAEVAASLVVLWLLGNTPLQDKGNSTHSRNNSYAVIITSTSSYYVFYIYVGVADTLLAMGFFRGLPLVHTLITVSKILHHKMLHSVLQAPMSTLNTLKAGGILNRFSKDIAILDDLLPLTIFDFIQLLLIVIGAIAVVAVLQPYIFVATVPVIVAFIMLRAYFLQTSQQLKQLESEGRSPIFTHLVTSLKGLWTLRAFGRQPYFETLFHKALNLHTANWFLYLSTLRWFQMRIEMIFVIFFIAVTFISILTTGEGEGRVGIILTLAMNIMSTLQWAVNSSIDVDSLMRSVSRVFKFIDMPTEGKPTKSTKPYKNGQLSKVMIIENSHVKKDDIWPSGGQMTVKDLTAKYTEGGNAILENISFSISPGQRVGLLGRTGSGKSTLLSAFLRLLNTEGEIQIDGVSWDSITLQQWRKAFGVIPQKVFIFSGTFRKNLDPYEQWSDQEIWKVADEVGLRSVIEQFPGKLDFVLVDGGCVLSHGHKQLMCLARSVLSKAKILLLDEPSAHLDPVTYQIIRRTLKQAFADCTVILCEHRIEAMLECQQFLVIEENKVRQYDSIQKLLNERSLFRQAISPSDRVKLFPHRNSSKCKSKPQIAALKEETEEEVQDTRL
SMILES,inhibition at 250 µM [1],inhibition at 1000 µM [2],effect on Cl- current previously activated by cAMP agonists,relative potency of inhibition of CFTR Cl- currents,other results
CC1=NS(=O)(=O)c2cc(Cl)ccc2N1 [diazoxide],> 70%,> 70%,inhibited,–,"effect on baseline currents (100-1,000 μM): no effect"
COc1ccc(Cl)cc1C(=O)NCCc1ccc(S(=O)(=O)NC(=O)NC2CCCCC2)cc1 [glibenclamide],–,–,–,–,"inhibition at 100 µM (NIH3T3, read-out: inhibition of CFTR Cl- currents): > 90%; reversibility of inhibition of CFTR Cl- currents on washing (prolonged washing): irreversible"
CC1(C)Oc2ccc(C#N)cc2[C@@H](N2CCCC2=O)[C@@H]1O [lemakalim],> 70%,–,inhibited,more potent than diazoxide,effect on baseline currents (250 μM): no effect
Nc1cc(N2CCCCC2)nc(N)[n+]1OS(=O)(=O)[O-] [minoxidil sulfate],–,–,inhibited,more potent than lemakalim,"effect on baseline currents (10-500 μM): no effect; inhibition at 100 µM (NIH3T3, 100 μM, 3 min after adding, currents activated by cAMP agonists, read-out: inhibition of CFTR Cl- currents): > 70%"
CCCCNC(=O)NS(=O)(=O)c1ccc(C)cc1 [tolbutamide],–,> 90%,–,–,"voltage dependence of inhibition of CFTR Cl- currents (500 μM): little voltage dependence; effect on CFTR Cl- currents (500 μM, currents activated by cAMP agonists): inhibited; reversibility of inhibition of CFTR Cl- currents on washing (washes lasting >10 min): partially recovered"
